Experimental data taken from patent US12509431B2, “1,4-dihydroquinazolinone compounds and uses thereof” (Edgewise Therapeutics, Inc., priority 2022, dated 2025).

Columns and labels:
Assay type in all cases: biochemical
Conditions in all cases: Table 8
[1] = biological target: T1, Porcine Ventricle myofibrils (left ventricle of Yucatan minipigs) (Sus scrofa, UniProt P79293); experiment: Myofibril ATPase assay (PK/LDH NADH-coupled), ventricle myofibrils
T1 construct: Myofibrils from porcine cardiac muscle was isolated from the left ventricle of Yucatan minipigs; tissue Exemplar Genetics; host or cells: left ventricle of Yucatan minipigs
Procedure: (§1) Myofibril ATPase assays are known in the art to be useful in evaluating small molecules for the treatment of HCM and other cardiac indications. Myosin ATPase activity is assessed by using a coupled reaction system, in which ADP generated by the myosin ATPase function is coupled to the disappearance of NADH through the pyruvate kinase/lactate dehydrogenase (PK-LDH) system. ATPase activity produces ADP, which is used as a substrate for PK to produce pyruvate and regenerate ATP. The pyruvate is then used as a substrate by LDH to oxidize NADH to NAD+. The rate of the reaction is monitored through the time-dependent disappearance of NADH using absorbance at 340 nm, which, when the couple system is in stoichiometric excess, is directly correlated to the ATPase activity of the myosin. Inhibition of ATPase activity by the assayed compounds is indicated by a reduced rate of NADH loss, relative to vehicle-treated controls, over the experimental time window. Rabbit Skeletal and Porcine Ventricle are the primary sources of myofibril material.
(§2) Materials: The following stock solutions and reagents were used in the Myofibril ATPase Assay:
(§3) Stock Solutions of pCa buffer. Combine PIPES, CaCl2), and EGTA solutions with water. Adjust pH to 7.0 and bring final volume to 100 mL.
(§4) Buffer A & Buffer B. Prepare buffers A and B according to the table below.
(§5) Myofibril ATPase Assay Procedure: BSA, ATP, NADH, PEP, and DTT solutions were thawed at room temperature, then transferred to ice. Pellet-frozen myofibrils were transferred with approximately twice the required volume into a sufficiently large tube and capped. Myofibrils were thawed by rolling in a water bath for approximately 15 min at room temperature and cooled on ice. Buffers A and B were prepared by adjusting volumes as necessary for required number of wells and stored on ice. 0.5 μL of the compounds to be assayed were added into wells. 25 μL of Buffer A was dispensed into the wells, followed by 25 μL of Buffer B. The wells were measured for absorbance at 340 nm, using a kinetic protocol in which the wells are read every 1.5-2 min for 75 min. Assay data analysis was performed using a python script that filtered the raw data to retain those points falling between a starting and ending time and between a maximum and minimum absorbance, then used the filtered time-domain 340 nm absorbance data in each well to calculate a slope via linear regression analysis in units of mAU/min. Compound slopes were normalized between 100% and 0% activity, where 100% represented the slope of wells containing only compound vehicle, and fit to a 4-parameter logistic model. In addition to the fit parameters, the EC25% is calculated, relative to the 100% normalized value. In the case of inhibitors, EC50% is also calculated, if available. Fit parameters, calculated effective concentrations, filtered raw data, and calculated slopes were exported, in addition to compound-specific graphs of normalized ATPase activity versus concentration in μM.
Cardiac Myofibril Isolation:
Myofibrils from porcine cardiac muscle was isolated from the left ventricle of Yucatan minipigs. Myofibrils were prepared using a method based upon those described in Herrmann et al. (1993) and summarized here. Minced tissue was homogenized for 50 sec with a Polytron homogenizer into 10 volumes (relative to weight in grams) of Isolation Buffer A (75 mM KCl, 10 mM Imidazole, 2 mM MgCl2, 2 mM EGTA, 1 mM NaN3, 1% v/v Triton X-100) supplemented with 4 mM Phosphocreatine, 1 mM ATP, 50 mM BDM, 1 mM DTT, 1 mM Benzamide HCl, 0.1 mM PMSF, 10 μM leupeptin, 5 μM pepstatin, and 10 mM EDTA. The myofibrils were recovered by centrifugation (Beckman Allegra 6R, 1200 g, 15 min) and resuspended in 10 volumes Isolation Buffer B (Buffer A above without supplemental reagents). The myofibrils were further homogenized described above and recovered by centrifugation for 7 mins. Cellular membranes and debris were removed by 3 washes in Isolation Buffer B, centrifuging each as before. […]

[2] = tested on: Rabbit Skeletal myofibrils (rabbit psoas muscle); experiment: Myofibril ATPase assay (PK/LDH NADH-coupled), skeletal myofibrils
Procedure: as §1, §2, §3, §4, §5
Skeletal Myofibril Isolation:
Myofibrils from various animals and tissue types were acquired from a variety of sources: rabbit psoas muscle was purchased from Pel-Freez Biologicals (Rogers, AR) and porcine cardiac muscle was purchased from Exemplar Genetics. All myofibrils were prepared using a method based upon those described in Herrmann et al. (1993) and summarized here. Minced tissue was homogenized for 50 sec with a Polytron homogenizer into 10 volumes (relative to weight in grams) of Isolation Buffer A (50 mM Tris, pH 8.0, 0.1 M potassium acetate, 5 mM KCl, 2 mM DTT, 5 mM EDTA, 0.5% v/v Triton X-100) supplemented with 0.1 mM PMSF, 10 μM leupeptin, 5 μM pepstatin, and 0.5 mM sodium azide. The myofibrils were recovered by centrifugation (Beckman Allegra 6R, 1200 g, 10 min) and resuspended in 10 volumes Isolation Buffer B (Buffer A above without protease inhibitors or sodium azide). The myofibrils were further homogenized as before and recovered by centrifugation. […]

Porcine Atria myofibrils = experiment: Myofibril ATPase assay (PK/LDH NADH-coupled), atria myofibrils
Procedure: as §5

T1 sequence (P79293 whole entry): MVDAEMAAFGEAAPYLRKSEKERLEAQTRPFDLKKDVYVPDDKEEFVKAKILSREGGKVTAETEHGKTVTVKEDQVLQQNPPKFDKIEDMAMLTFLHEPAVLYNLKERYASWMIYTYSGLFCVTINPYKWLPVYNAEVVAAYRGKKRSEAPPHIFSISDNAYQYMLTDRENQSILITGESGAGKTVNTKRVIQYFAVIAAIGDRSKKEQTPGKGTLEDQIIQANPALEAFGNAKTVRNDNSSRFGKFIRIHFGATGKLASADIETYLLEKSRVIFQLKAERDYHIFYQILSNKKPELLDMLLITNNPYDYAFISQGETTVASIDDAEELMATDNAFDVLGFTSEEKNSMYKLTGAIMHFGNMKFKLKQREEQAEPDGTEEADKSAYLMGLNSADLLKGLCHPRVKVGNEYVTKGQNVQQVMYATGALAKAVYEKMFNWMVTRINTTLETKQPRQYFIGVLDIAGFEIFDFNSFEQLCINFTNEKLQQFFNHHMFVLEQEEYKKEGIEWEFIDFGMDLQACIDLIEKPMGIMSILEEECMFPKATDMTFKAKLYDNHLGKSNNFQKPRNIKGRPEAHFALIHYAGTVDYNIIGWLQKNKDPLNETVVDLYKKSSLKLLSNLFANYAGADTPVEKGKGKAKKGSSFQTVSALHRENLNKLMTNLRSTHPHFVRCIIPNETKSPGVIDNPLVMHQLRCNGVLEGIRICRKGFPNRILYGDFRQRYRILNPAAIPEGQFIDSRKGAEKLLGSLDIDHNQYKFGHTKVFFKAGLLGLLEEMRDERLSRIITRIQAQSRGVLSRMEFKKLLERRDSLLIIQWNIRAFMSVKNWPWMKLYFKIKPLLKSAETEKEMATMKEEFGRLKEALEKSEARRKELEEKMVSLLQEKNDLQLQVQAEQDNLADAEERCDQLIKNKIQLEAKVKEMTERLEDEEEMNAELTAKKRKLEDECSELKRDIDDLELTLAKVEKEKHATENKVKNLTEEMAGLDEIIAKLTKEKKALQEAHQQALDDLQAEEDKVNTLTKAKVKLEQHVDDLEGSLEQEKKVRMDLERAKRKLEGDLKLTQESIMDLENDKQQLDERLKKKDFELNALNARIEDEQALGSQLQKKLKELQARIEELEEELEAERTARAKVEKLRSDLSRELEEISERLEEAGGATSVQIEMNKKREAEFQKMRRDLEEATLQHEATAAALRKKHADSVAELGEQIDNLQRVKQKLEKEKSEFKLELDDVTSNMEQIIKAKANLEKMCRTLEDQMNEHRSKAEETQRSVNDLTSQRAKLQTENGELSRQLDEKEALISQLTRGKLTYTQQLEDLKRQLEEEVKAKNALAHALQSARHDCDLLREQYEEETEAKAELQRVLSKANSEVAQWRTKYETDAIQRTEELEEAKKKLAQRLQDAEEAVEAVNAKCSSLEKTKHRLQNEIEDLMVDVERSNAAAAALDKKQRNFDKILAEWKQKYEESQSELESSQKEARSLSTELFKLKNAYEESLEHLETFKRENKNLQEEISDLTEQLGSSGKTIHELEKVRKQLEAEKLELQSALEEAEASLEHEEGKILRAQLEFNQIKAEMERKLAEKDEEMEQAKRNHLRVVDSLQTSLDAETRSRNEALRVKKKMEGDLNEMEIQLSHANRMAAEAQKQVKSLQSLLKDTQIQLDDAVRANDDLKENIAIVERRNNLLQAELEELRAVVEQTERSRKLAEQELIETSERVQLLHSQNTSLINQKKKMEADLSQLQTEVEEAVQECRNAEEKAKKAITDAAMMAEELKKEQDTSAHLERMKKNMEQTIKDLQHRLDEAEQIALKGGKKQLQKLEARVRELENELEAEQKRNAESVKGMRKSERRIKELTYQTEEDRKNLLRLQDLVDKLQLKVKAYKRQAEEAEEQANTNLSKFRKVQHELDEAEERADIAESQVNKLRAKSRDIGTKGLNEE

| SMILES | Porcine Ventricle IC25 [1] [nM] | Rabbit Psoas IC25 [2] [nM] | Porcine Atria IC25 (Porcine Atria myofibrils) [nM] |
| --- | --- | --- | --- |
| C[C@H](NC(=O)CN1C(=O)Nc2ccc(F)c(F)c2[C@@H]1C)c1ccc(F)cc1F (relative stereo) [Compound B231, 2-[(4S*)-5,6-Difluoro-4-methyl-2-oxo-1,4-dihydroquinazolin-3-yl]-N-[(1S)-1-(2,4-difluorophenyl)ethyl]acetamide] | 1558 | 21.07 | 210 |
| C[C@H](NC(=O)CN1C(=O)Nc2ccc(F)c(F)c2[C@H]1C)c1ccc(F)cc1F (relative stereo) [Compound B232, 2-[(4R*)-5,6-Difluoro-4-methyl-2-oxo-1,4-dihydroquinazolin-3-yl]-N-[(1S)-1-(2,4-difluorophenyl)ethyl]acetamide] | 396.3 | 32.8 | 40 |
| Cc1cc(C#N)nnc1C(C)NC(=O)CN1Cc2c(ccc(F)c2F)NC1=O (single isomer, unassigned) [Compound B23] | 34.7 | 12.4 | 40 |
| Cc1ccnnc1C(C)NC(=O)CN1Cc2c(ccc(F)c2F)NC1=O (single isomer, unassigned) [Compound B25] | 2494 | 4823 | 700 |
| Cc1cc([C@H](C)NC(=O)CN2Cc3c(ccc(F)c3F)NC2=O)ncc1C#N (single isomer, unassigned) [Compound B35] | 948 | 1252 | 580 |
| Cc1cnncc1C(C)NC(=O)CN1Cc2c(ccc(F)c2F)NC1=O (single isomer, unassigned) [Compound B47] | 96660 | 100000 | 100000 |
| CC(NC(=O)CN1Cc2c(ccc(F)c2F)NC1=O)c1cc(C#N)c(F)cn1 (single isomer, unassigned) [Compound B53] | 7534 | 100000 | 90 |
| CC(C)C[C@H](C(=O)N[C@H](C)c1ccc(F)cc1F)N1Cc2cc(F)ccc2NC1=O (single isomer, unassigned) [Compound B67] | 9364 | 7017 | 43940 |
| Cc1cc(C(C)NC(=O)CN2Cc3c(ccc(F)c3F)NC2=O)ncc1F (single isomer, unassigned) [Compound B69] | 298.7 | 3174 | 610 |
| CC(NC(=O)CN1Cc2c(ccc(F)c2F)NC1=O)c1cc2c(cn1)OCCN2C (single isomer, unassigned) [Compound B74] | 100000 | 100000 | 1240 |
| O=C(CN1Cc2c(ccc(F)c2F)NC1=O)NC1COCc2cc(F)ccc21 (single isomer, unassigned) [Compound B76] | 346.5 | 5359 | 390 |
| O=C(CN1Cc2c(ccc(F)c2F)NC1=O)NC1COc2ccc(F)cc2C1 (single isomer, unassigned) [Compound B87] | 2048 | 1110 | 190 |
| CC1c2ccccc2NC(=O)N1CC(=O)N[C@@H](CO)c1ccc(F)cc1F (single isomer, unassigned) [Compound B200, N-[(1R)-1-(2,4-difluorophenyl)-2-hydroxyethyl]-2-[(4R*)-4-methyl-2-oxo-1,4-dihydroquinazolin-3-yl]acetamide] | 79130 | 2863 | 2450 |
| O=C(CN1Cc2c(ccc(F)c2F)NC1=O)N[C@H]1CCc2cc(F)cnc21 (single isomer, unassigned) [Compound B351] | 100000 | 100000 | 100000 |
| Cc1nc([C@@H](C)NC(=O)CN2Cc3c(ccc(F)c3F)NC2=O)ncc1C#N (single isomer, unassigned) [Compound B352] | 2360 | 4450 | 610 |
| Cc1nc(C#N)ncc1[C@@H](C)NC(=O)CN1Cc2c(ccc(F)c2F)NC1=O [Compound B1] | 59.9 | 20.1 | 90 |
| Cc1nc(C#N)ncc1[C@H](C)NC(=O)CN1Cc2c(ccc(F)c2F)NC1=O [Compound B2] | 7734 | 5739 | 960 |
| Cc1nsc([C@H](C)NC(=O)CN2Cc3c(ccc(F)c3F)NC2=O)n1 [Compound B3] | 52510 | 100000 | 34810 |
| N#Cc1cnc2c(c1)COC[C@H]2NC(=O)CN1Cc2c(ccc(F)c2F)NC1=O [Compound B4] | 116.1 | 131.8 | 70 |
| N#Cc1cnc2c(c1)COC[C@@H]2NC(=O)CN1Cc2c(ccc(F)c2F)NC1=O [Compound B5] | 100000 | 4565 | 100000 |
| O=C(CN1Cc2c(ccc(F)c2F)NC1=O)N[C@@H]1COc2cc(F)cnc21 [Compound B6] | 148.3 | 123.2 | 70 |
| O=C(CN1Cc2c(ccc(F)c2F)NC1=O)N[C@H]1COc2cc(F)cnc21 [Compound B7] | 2786 | 29140 | 450 |
| COc1cnc([C@H](C)NC(=O)CN2Cc3cc(F)ccc3NC2=O)c(F)c1 [Compound B179] | 100000 | 100000 |  |
